Data as given in US20260109732A1, “LIPID AMINES” (ModernaTX, Inc., priority 2021, published 2026).
Structures can show the parent of a compound that is named as a salt.

Key:
HeLa cells [1] = experiment: Luciferase Protein Expression Assay in HeLa Cells; assay type: cell-based, Human; details: LNPs encapsulating Luciferase mRNA, 25 ng per well, N=4 wells; 5 h serum-free then 24 h; ONE-Glo
Description: For HeLa studies evaluating luciferase protein expression, PEG-DMG-2K dissolved in a 20 mM TRIS buffer (pH 7.5) is added to the neutralized intermediate nanoparticle solution at a ratio of 1:6, bringing the solution to the final molar ratios of IL1:DSPC:cholesterol:PEG-DMG-2K of 48.5:11.1:38.9:1.5%. This nanoparticle formulation is then modified with lipid amines. In a typical example, nanoparticle formulation at a concentration of 0.18 mg/mL mRNA and a 0.56 mL volume is modified with lipid amine SA50 (467.2 nmol) prepared in buffer containing 20 mM TRIS, 14.3 mM sodium acetate, 32 g/L sucrose and 140 mM NaCl-pH 7.5 at a volumetric ratio of 1:1 of nanoparticle:buffer.
Lipid nanoparticle compositions were prepared in a manner analogous to that in example 2. To evaluate LNP cellular uptake and protein expression In Vitro, HeLa cells from ATCC.org (ATCC CCL-2) are used. The cells are cultured in complete Minimum Essential Medium (MVEM) and are plated in 96 well Cell Carrier Ultra plate with PDL coated surface (PerkinElmer) prior to running an experiment.
Cells were transfected with buffer control (PBS) or LNPs encapsulating Luciferase mRNA (25 ng per well; N=4 replicate wells) in serum-free MEM media. LNP transfected cells were incubated for 5 h, followed by media removal and supplementation with complete MEM media. Cells were further incubated in complete MEM media overnight (24 h). Following the 24 hr incubation, luciferase protein expression was measured using the ONE-Glo™ Luciferase Assay (Promega). Cells were lysed using 1× Passive Lysis Buffer (Cat. #E194A) for 10 min in a microplate mixer at room temperature. Luciferase in the supernatant was measured by adding Luciferase Assay Reagent (Cat. #E151A) containing luciferin. Bioluminescence was then immediately measured on a Synergy H1 plate reader (BioTek). The results shown in Table 3a show the Average Relative Light Units (RLU) of each sample tested.

HeLa cells [2] = experiment: CFTR Protein Expression Assay in HeLa Cells; assay type: cell-based, Human; details: LNPs encapsulating CFTR mRNA, N=4 wells; 5 h serum-free then 24 h; immunofluorescence vs PBS control
Summary of the method: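 Readout is fold-change in per-cell CFTR immunofluorescence intensity (488 nm, confocal imaging) relative to PBS-treated cells, from 4 replicate wells. LNPs encapsulating CFTR mRNA were applied serum-free for 5 h, followed by 24 h in complete medium before PFA fixation.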

[3] = Encapsulation of mRNA nanoparticles with lipid amines using Ribogreen assay; assay type: physicochemical
Summary of the method: (§1)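 DLS gave size and PDI, and Ribogreen gave encapsulation, for luciferase- or CFTR-mRNA nanoparticles (N:P 4.93). Particles came from IL1/DSPC/cholesterol/PEG-DMG-2K mixed at pH 4, mRNA-loaded, neutralized with TRIS pH 8.12, and then treated with lipid amine SA50 in pH 7.5 buffer.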

[4] = Diameter and PDI from DLS measurements of mRNA nanoparticles with lipid amines; assay type: physicochemical
Summary of the method: as §1

[5] = CFTR mRNA nanoparticle with lipid amine
[6] = Luciferase mRNA nanoparticle modified with lipid amine

Structure (SMILES)	Average Relative Light Units ± Standard Deviation (HeLa cells [1]) [Relative Light Units]	Average fold-change in CFTR signal intensity per cell compared to buffer control ± standard deviation (HeLa cells [2]) [fold-change]	% Encapsulation (Ribogreen) [3, 5] [%]	% Encapsulation (Ribogreen) [3, 6] [%]	Diameter (nm) [4, 5] [nm]	PDI [4, 5]	Diameter (nm) [4, 6] [nm]	PDI [4, 6]
CC(C)CCC[C@@H](C)[C@H]1CC[C@H]2[C@@H]3CC=C4C[C@@H](OC(=O)CCC(=O)N(CCCN)CCCCCCCCN)CC[C@]4(C)[C@H]3CC[C@]12C [SA72, (3S,8S,9S,10R,13R,14S,17R)-10,13-Dimethyl-17-((R)-6-methylheptan-2-yl)-2,3,4,7,8,9,10,11,12,13,14,15,16,17-tetradecahydro-1H-cyclopenta[a]phenanthren-3-yl 4-((8-aminooctyl)(3-aminopropyl)amino)-4-oxobutanoate dihydrochloride]	30826.5 ± 5913.2	6.6 ± 0.6	99.8	99.1	73.0	0.11	72	0.11
CC(C)CCC[C@@H](C)[C@H]1CC[C@H]2[C@@H]3CC=C4C[C@@H](OC(=O)N(CCCCNCC(C)CN)CC(C)CN)CC[C@]4(C)[C@H]3CC[C@]12C (stereo partly drawn) [SA75, (3S,8S,9S,10R,13R,14S,17R)-10,13-dimethyl-17-((R)-6-methylheptan-2-yl)-2,3,4,7,8,9,10,11,12,13,14,15,16,17-tetradecahydro-1H-cyclopenta[a]phenanthren-3-yl (3-amino-2-methylpropyl)(4-((3-amino-2-methylpropyl)amino)butyl)carbamate trihydrochloride]	37732.4 ± 6382.7	11.9 ± 0.6	100	98.8	86.9	0.11	74	0.16
CC(C)CCC[C@@H](C)[C@H]1CC[C@H]2[C@@H]3CC=C4C[C@@H](OC(=O)N(CCCCNCCC(C)N)CCC(C)N)CC[C@]4(C)[C@H]3CC[C@]12C (stereo partly drawn) [SA76, (3S,8S,9S,10R,13R,14S,17R)-10,13-dimethyl-17-((R)-6-methylheptan-2-yl)-2,3,4,7,8,9,10,11,12,13,14,15,16,17-tetradecahydro-1H-cyclopenta[a]phenanthren-3-yl (3-aminobutyl)(4-((3-aminobutyl)amino)butyl)carbamate trihydrochloride]	38232.8 ± 4603.5	12.0 ± 1.1	100	98.1	83.9	0.11	75	0.20
CC(C)CCC[C@@H](C)[C@H]1CC[C@H]2[C@@H]3CC=C4C[C@@H](OC(=O)N(CCCCNCC(C)(C)CN)CC(C)(C)CN)CC[C@]4(C)[C@H]3CC[C@]12C [SA77, (3S,8S,9S,10R,13R,14S,17R)-10,13-dimethyl-17-((R)-6-methylheptan-2-yl)-2,3,4,7,8,9,10,11,12,13,14,15,16,17-tetradecahydro-1H-cyclopenta[a]phenanthren-3-yl (3-amino-2,2-dimethylpropyl)(4-((3-amino-2,2-dimethylpropyl)amino)butyl)carbamate trihydrochloride]	39191.9 ± 4319	12.2 ± 1.3	100	98.2	83.9	0.13	74	0.20
CC(C)CCC[C@@H](C)[C@H]1CC[C@H]2[C@@H]3CC=C4C[C@@H](OC(=O)N(CCCCNCCC(C)(C)N)CCC(C)(C)N)CC[C@]4(C)[C@H]3CC[C@]12C [SA78, (3S,8S,9S,10R,13R,14S,17R)-10,13-dimethyl-17-((R)-6-methylheptan-2-yl)-2,3,4,7,8,9,10,11,12,13,14,15,16,17-tetradecahydro-1H-cyclopenta[a]phenanthren-3-yl (3-amino-3-methylbutyl)(4-((3-amino-3-methylbutyl)amino)butyl)carbamate trihydrochloride]	14341.8 ± 3497.6	11.3 ± 0.7	100	99.8	87.7	0.17	76	0.20
CC(C)CCC[C@@H](C)[C@H]1CC[C@H]2[C@@H]3CC=C4C[C@@H](OC(=O)N(CCCCNCC(F)(F)CN)CC(F)(F)CN)CC[C@]4(C)[C@H]3CC[C@]12C [SA79, (3S,8S,9S,10R,13R,14S,17R)-10,13-dimethyl-17-((R)-6-methylheptan-2-yl)-2,3,4,7,8,9,10,11,12,13,14,15,16,17-tetradecahydro-1H-cyclopenta[a]phenanthren-3-yl (3-amino-2,2-difluoropropyl)(4-((3-amino-2,2-difluoropropyl)amino)butyl)carbamate trihydrochloride]	105.1 ± 20	0.8 ± 0	97.9	97.0	78.4	0.13	74	0.18
CC(C)CCC[C@@H](C)[C@H]1CC[C@H]2[C@@H]3CC=C4C[C@@H](OC(=O)N(CCCCCCN)CCCCCCN)CC[C@]4(C)[C@H]3CC[C@]12C [SA81, (3S,8S,9S,10R,13R,14S,17R)-10,13-Dimethyl-17-((R)-6-methylheptan-2-yl)-2,3,4,7,8,9,10,11,12,13,14,15,16,17-tetradecahydro-1H-cyclopenta[a]phenanthren-3-yl bis(6-aminohexyl)carbamate dihydrochloride]	19619.8 ± 4362.6	4.4 ± 0.3	99.4	99.8	87.6	0.18	72	0.12
CC[C@H](CC[C@@H](C)[C@H]1CC[C@H]2[C@@H]3CC=C4C[C@@H](OC(=O)N(CCCCCCN)CCCCCCN)CC[C@]4(C)[C@H]3CC[C@]12C)C(C)C [SA82, (3S,8S,9S,10R,13R,14S,17R)-17-((2R,5R)-5-Ethyl-6-methylheptan-2-yl)-10,13-dimethyl-2,3,4,7,8,9,10,11,12,13,14,15,16,17-tetradecahydro-1H-cyclopenta[a]phenanthren-3-yl bis(6-aminohexyl)carbamate dihydrochloride]	33396.2 ± 4902.7	4.6 ± 0.2	99.4	99.1	80.7	0.13	73	0.11
